Assay results taken from patent publication US10815230B2, “Casein kinase 1 delta inhibitor” (ELECTROPHORETICS LIMITED, priority 2015, dated 2020).

Tests used:
Type in all cases: biochemical
[1] = target: PKCb2 (Homo sapiens, UniProt P05771); assay: Kinase selectivity, % remaining activity; details: 10 μM compound, 10 μM ATP, duplicate
Description: (§1) A two-tier strategy to determine the selectivity of compound A was applied: first, the compound was tested at a single concentration (in duplicate) to determine the %-remaining activity of the target kinase. Subsequently, the IC50 of compound A and comparative compounds for casein kinase 1 delta were determined.
(§2) Compounds were tested in single dose duplicate mode at a concentration of 10 μM (in DMSO) and reactions were carried out at 10 μM ATP, Table 3 reports the % of remaining activity (relative to DMSO).

[2] = target: GSK3B (Homo sapiens, UniProt P49841); assay: Kinase selectivity, % remaining activity; details: 10 μM compound, 10 μM ATP, duplicate
Chain of GSK3B (P49841 whole entry): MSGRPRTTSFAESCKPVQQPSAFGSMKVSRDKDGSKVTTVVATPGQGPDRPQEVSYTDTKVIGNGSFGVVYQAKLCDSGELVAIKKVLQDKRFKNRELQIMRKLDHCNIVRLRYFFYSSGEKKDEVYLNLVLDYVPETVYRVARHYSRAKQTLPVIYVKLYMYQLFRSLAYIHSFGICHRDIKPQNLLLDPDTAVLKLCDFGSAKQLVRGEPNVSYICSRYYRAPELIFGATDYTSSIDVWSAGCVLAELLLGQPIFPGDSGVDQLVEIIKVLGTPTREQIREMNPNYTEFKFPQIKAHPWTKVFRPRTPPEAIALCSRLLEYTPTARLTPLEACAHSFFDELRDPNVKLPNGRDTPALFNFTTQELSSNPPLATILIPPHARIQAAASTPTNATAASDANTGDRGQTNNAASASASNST
Description: as §1, §2

[3] = target: LCK (Homo sapiens, UniProt P06239); assay: Kinase selectivity, % remaining activity; details: 10 μM compound, 10 μM ATP, duplicate
Chain of LCK (P06239 whole entry): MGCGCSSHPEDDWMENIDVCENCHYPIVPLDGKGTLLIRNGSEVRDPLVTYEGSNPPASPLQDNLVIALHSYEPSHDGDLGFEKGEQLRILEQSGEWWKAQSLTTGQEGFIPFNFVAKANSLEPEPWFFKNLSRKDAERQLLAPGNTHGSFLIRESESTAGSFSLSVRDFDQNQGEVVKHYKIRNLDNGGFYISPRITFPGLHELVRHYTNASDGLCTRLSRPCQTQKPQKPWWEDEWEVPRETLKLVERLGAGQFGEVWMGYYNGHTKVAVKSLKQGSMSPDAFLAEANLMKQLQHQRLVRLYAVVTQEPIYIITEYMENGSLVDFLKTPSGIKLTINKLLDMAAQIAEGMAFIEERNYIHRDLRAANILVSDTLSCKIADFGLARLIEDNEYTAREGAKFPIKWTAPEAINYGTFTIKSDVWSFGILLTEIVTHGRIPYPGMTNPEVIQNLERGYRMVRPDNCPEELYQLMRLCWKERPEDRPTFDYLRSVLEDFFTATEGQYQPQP
Description: as §1, §2

[4] = target: CK1g3 (Homo sapiens, UniProt Q9Y6M4); assay: Kinase selectivity, % remaining activity; details: 10 μM compound, 10 μM ATP, duplicate
Chain of CK1g3 (Q9Y6M4 whole entry): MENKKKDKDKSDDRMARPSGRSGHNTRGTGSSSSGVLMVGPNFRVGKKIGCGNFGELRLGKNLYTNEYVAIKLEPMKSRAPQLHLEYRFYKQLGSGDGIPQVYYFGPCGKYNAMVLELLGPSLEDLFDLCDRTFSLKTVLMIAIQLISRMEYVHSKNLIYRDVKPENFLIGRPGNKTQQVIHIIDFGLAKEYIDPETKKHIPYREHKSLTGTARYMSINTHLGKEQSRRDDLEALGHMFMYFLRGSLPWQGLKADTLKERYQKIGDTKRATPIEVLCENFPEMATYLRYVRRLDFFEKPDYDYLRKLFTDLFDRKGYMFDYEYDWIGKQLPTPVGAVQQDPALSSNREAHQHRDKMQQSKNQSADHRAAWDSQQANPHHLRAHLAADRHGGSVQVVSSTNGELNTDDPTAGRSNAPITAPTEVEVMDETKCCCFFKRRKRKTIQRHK
Description: as §1, §2

[5] = target: ABL2/ARG (Homo sapiens, UniProt P42684); assay: Kinase selectivity, % remaining activity; details: 10 μM compound, 10 μM ATP, duplicate
Description: as §1, §2

[6] = target: CK1g1 (Homo sapiens, UniProt Q9HCP0); assay: Kinase selectivity, % remaining activity; details: 10 μM compound, 10 μM ATP, duplicate
Chain of CK1g1 (Q9HCP0 whole entry): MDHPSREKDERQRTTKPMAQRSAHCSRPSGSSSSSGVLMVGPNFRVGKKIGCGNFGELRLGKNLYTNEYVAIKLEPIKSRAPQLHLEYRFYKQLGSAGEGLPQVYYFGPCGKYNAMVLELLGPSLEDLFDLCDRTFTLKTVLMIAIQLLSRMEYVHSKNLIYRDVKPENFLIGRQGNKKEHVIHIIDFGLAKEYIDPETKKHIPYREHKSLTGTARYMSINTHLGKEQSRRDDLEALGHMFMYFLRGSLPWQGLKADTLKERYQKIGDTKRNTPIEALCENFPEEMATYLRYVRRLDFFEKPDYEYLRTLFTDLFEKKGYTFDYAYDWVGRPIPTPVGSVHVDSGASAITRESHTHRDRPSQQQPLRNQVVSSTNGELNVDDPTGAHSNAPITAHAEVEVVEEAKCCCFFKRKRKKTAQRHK
Description: as §1, §2

[7] = target: RIPK2 (Homo sapiens, UniProt O43353); assay: Kinase selectivity, % remaining activity; details: 10 μM compound, 10 μM ATP, duplicate
Description: as §1, §2

[8] = target: MSK1/RPS6KA5 (Homo sapiens, UniProt O75582); assay: Kinase selectivity, % remaining activity; details: 10 μM compound, 10 μM ATP, duplicate
Chain of MSK1/RPS6KA5 (O75582 whole entry): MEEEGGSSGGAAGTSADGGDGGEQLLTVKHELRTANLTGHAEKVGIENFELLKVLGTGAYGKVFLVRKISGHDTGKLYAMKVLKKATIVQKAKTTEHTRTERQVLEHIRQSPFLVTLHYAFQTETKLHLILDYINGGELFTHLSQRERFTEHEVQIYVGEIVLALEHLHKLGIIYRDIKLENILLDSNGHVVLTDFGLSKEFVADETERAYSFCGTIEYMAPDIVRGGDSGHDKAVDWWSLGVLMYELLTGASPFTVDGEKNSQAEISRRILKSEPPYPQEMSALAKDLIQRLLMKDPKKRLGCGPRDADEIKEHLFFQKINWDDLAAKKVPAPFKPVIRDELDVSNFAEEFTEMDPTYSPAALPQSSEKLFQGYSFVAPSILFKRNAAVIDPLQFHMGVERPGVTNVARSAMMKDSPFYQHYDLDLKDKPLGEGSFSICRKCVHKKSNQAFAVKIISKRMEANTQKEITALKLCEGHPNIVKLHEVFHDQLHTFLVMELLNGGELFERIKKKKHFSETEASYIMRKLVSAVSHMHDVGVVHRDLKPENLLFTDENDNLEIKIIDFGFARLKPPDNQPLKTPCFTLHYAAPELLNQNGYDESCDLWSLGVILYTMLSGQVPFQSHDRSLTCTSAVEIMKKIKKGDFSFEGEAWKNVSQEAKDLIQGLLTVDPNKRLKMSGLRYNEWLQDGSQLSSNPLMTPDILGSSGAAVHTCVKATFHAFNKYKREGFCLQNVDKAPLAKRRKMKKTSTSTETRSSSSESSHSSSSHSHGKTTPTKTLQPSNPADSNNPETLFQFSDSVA
Description: as §1, §2

[9] = target: EGFR (Homo sapiens, UniProt P00533); assay: Kinase selectivity, % remaining activity; details: 10 μM compound, 10 μM ATP, duplicate
Description: as §1, §2

[10] = target: KDR/VEGFR2 (Homo sapiens, UniProt P35968); assay: Kinase selectivity, % remaining activity; details: 10 μM compound, 10 μM ATP, duplicate
Description: as §1, §2

[11] = target: JNK2 (Homo sapiens, UniProt P45984); assay: Kinase selectivity, % remaining activity; details: 10 μM compound, 10 μM ATP, duplicate
Description: as §1, §2

[12] = target: ROCK1 (Homo sapiens, UniProt Q13464); assay: Kinase selectivity, % remaining activity; details: 10 μM compound, 10 μM ATP, duplicate
Description: as §1, §2

[13] = target: CDK5/p25 (Homo sapiens, UniProt Q00535); assay: Kinase selectivity, % remaining activity; details: 10 μM compound, 10 μM ATP, duplicate
Chain of CDK5/p25 (Q00535 whole entry, species assumed): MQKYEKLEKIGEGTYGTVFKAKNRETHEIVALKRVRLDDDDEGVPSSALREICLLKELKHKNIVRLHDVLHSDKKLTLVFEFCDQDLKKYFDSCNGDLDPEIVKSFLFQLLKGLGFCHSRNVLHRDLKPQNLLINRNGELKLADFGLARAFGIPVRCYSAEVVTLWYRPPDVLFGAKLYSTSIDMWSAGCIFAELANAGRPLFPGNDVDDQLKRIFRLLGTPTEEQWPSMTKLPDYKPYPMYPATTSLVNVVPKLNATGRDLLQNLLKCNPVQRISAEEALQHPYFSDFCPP
Description: as §1, §2

[14] = target: FGFR1 (Homo sapiens, UniProt P11362); assay: Kinase selectivity, % remaining activity; details: 10 μM compound, 10 μM ATP, duplicate
Description: as §1, §2

[15] = target: T1, ALK5/TGFBR1 (Homo sapiens, UniProt P36897); assay: Kinase selectivity, % remaining activity; details: 10 μM compound, 10 μM ATP, duplicate
T1 sequence (P36897 34-503): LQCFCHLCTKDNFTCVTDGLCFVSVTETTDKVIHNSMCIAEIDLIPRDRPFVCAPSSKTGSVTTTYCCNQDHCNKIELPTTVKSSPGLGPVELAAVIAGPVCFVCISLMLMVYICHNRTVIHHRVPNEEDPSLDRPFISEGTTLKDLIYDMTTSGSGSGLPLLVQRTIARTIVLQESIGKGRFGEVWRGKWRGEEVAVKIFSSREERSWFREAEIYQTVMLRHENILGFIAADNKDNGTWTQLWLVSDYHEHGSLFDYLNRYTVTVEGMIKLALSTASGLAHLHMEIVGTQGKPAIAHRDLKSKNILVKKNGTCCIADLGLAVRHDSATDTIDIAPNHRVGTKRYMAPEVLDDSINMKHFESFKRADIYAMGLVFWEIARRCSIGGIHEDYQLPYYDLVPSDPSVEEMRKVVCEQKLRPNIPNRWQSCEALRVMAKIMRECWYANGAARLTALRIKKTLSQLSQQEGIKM
Description: as §1, §2

[16] = target: CK1g2 (Homo sapiens, UniProt P78368); assay: Kinase selectivity, % remaining activity; details: 10 μM compound, 10 μM ATP, duplicate
Chain of CK1g2 (P78368 whole entry, species assumed): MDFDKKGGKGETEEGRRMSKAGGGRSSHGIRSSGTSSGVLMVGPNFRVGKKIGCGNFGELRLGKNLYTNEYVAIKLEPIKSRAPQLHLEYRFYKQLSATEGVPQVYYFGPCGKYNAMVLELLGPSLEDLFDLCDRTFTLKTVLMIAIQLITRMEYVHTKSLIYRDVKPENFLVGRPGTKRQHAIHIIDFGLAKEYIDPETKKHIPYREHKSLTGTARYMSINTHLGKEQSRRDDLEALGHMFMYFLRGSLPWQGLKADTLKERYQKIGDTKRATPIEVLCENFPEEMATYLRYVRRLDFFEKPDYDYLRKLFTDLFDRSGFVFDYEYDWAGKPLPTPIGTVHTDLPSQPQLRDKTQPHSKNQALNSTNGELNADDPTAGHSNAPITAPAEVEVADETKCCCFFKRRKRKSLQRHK
Description: as §1, §2

[17] = target: YES/YES1 (Homo sapiens, UniProt P07947); assay: Kinase selectivity, % remaining activity; details: 10 μM compound, 10 μM ATP, duplicate
Chain of YES/YES1 (P07947 whole entry): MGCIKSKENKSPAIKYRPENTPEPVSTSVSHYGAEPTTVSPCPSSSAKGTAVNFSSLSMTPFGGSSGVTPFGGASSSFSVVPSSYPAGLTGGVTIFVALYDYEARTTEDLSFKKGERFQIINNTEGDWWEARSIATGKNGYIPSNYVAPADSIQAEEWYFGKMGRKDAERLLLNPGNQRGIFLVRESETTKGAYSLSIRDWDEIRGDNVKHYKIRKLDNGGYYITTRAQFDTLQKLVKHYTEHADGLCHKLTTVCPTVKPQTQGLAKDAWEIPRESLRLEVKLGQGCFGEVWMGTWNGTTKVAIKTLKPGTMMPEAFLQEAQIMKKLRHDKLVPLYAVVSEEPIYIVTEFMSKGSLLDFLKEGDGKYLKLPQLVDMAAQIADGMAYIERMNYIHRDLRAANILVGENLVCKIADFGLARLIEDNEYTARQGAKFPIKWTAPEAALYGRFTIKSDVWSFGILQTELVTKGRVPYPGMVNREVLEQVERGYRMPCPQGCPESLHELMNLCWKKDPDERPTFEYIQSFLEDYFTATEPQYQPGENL
Description: as §1, §2

[18] = target: TNIK (Homo sapiens, UniProt Q9UKE5); assay: Kinase selectivity, % remaining activity; details: 10 μM compound, 10 μM ATP, duplicate
Description: as §1, §2

[19] = target: CK1e (Homo sapiens, UniProt P49674); assay: Kinase selectivity, % remaining activity; details: 10 μM compound, 10 μM ATP, duplicate
Description: as §1, §2

[20] = target: PKA (Homo sapiens, UniProt P17612); assay: Kinase selectivity, % remaining activity; details: 10 μM compound, 10 μM ATP, duplicate
Description: as §1, §2

[21] = target: CLK2 (Homo sapiens, UniProt P49760); assay: Kinase selectivity, % remaining activity; details: 10 μM compound, 10 μM ATP, duplicate
Description: as §1, §2

[22] = target: PIM3 (Homo sapiens, UniProt Q86V86); assay: Kinase selectivity, % remaining activity; details: 10 μM compound, 10 μM ATP, duplicate
Description: as §1, §2

[23] = target: EPHA2 (Homo sapiens, UniProt P29317); assay: Kinase selectivity, % remaining activity; details: 10 μM compound, 10 μM ATP, duplicate
Description: as §1, §2

[24] = target: T2, PDK1/PDPK1 (Homo sapiens, UniProt O15530); assay: Kinase selectivity, % remaining activity; details: 10 μM compound, 10 μM ATP, duplicate
T2 sequence (O15530 1-556): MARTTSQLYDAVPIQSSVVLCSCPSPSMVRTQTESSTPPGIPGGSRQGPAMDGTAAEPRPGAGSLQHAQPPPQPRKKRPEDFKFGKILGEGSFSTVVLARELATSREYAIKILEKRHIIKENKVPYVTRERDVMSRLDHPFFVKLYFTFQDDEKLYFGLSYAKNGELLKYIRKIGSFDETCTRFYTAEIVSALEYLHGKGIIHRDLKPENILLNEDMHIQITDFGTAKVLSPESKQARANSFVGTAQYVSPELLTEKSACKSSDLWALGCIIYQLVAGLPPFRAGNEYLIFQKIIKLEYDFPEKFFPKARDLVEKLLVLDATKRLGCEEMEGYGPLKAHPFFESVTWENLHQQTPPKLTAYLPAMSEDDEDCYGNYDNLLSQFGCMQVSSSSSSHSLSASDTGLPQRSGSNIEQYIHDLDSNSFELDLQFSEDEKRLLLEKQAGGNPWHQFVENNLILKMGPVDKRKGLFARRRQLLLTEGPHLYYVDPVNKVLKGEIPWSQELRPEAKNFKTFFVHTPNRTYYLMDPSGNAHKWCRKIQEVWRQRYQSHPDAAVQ
Description: as §1, §2

[25] = target: P38a/MAPK14 (Homo sapiens, UniProt Q16539); assay: Kinase selectivity, % remaining activity; details: 10 μM compound, 10 μM ATP, duplicate
Description: as §1, §2

[26] = target: CK1d (casein kinase 1 delta) (Homo sapiens, UniProt P48730); assay: Kinase selectivity, % remaining activity and IC50; details: 10 μM ATP; for IC50: casein kinase 1 delta, 10-dose, 3 fold serial dilution
Chain of CK1d (casein kinase 1 delta) (P48730 whole entry): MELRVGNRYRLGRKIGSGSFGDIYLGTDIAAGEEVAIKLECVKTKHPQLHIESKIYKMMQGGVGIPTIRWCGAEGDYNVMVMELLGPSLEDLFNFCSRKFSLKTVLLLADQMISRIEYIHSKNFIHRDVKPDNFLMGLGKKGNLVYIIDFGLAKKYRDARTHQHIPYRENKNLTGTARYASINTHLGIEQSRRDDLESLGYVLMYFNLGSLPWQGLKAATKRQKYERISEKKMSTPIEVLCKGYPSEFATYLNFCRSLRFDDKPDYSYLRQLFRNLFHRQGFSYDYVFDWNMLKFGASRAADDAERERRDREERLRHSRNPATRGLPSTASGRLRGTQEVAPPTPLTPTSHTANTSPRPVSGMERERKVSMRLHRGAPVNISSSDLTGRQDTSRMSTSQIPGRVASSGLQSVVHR
Description: as §1, §2
Control compound GW5074 (Tocris®) was tested starting at 20 μM. Reactions were carried out at 10 μM ATP.

[27] = target: CK1a1 (Homo sapiens, UniProt P48729); assay: Kinase selectivity, % remaining activity; details: CK1a1, 10 μM compound, 10 μM ATP, duplicate
Description: as §2

[28] = read-out: % of remaining activity (relative to DMSO)

Chain of PKCb2 (P05771 1-673 isoform P05771-2): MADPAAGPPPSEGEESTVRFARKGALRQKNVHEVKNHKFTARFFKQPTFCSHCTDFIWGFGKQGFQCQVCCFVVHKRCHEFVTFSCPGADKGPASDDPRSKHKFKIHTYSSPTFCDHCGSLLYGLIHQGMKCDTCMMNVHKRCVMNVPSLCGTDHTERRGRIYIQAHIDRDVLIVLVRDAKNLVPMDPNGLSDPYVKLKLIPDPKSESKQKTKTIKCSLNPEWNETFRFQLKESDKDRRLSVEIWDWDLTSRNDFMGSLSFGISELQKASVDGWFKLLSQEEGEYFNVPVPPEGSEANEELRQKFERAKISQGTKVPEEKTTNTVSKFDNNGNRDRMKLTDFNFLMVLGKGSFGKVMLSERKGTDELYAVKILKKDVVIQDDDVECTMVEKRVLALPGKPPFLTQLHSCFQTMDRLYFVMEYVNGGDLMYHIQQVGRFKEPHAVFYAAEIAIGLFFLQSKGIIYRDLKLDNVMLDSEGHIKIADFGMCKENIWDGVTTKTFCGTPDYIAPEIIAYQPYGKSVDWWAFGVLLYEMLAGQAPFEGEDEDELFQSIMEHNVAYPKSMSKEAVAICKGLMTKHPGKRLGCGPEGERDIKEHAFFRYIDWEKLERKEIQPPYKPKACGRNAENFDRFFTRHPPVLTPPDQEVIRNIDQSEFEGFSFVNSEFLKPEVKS

SMILES: NC(=O)c1c(N)c(C(=O)c2ccc(F)cc2)n2ccccc12 [Comparative Compound 987, 2-amino-3-[(4-fluorophenyl)carbonyl]indolizine-1-carboxamide]
- % of remaining activity (relative to DMSO) ([1]; listed as Cmp 987): 66.13%
- remaining activity at 10 µM [1, 28]: 73%
- % of remaining activity (relative to DMSO) ([2]; listed as Cmp 987): 68.98%
- remaining activity at 10 µM [2, 28]: 70%
- % of remaining activity (relative to DMSO) ([3]; listed as Cmp 987): 58.89%
- remaining activity at 10 µM [3, 28]: 63.9%
- % of remaining activity (relative to DMSO) ([4]; listed as Cmp 987): 97.42%
- remaining activity at 10 µM [4, 28]: 101%
- % of remaining activity (relative to DMSO) ([5]; listed as Cmp 987): 83.33%
- remaining activity at 10 µM [5, 28]: 88.1%
- % of remaining activity (relative to DMSO) ([6]; listed as Cmp 987): 99.58%
- remaining activity at 10 µM [6, 28]: 104%
- % of remaining activity (relative to DMSO) ([7]; listed as Cmp 987): 40.46%
- remaining activity at 10 µM [7, 28]: 36.3%
- % of remaining activity (relative to DMSO) ([8]; listed as Cmp 987): 87.76%
- remaining activity at 10 µM [8, 28]: 91.4%
- % of remaining activity (relative to DMSO) ([9]; listed as Cmp 987): 34.51%
- remaining activity at 10 µM [9, 28]: 32%
- % of remaining activity (relative to DMSO) ([10]; listed as Cmp 987): 83.06%
- remaining activity at 10 µM [10, 28]: 90.3%
- % of remaining activity (relative to DMSO) ([11]; listed as Cmp 987): 63.80%
- remaining activity at 10 µM [11, 28]: 60%
- % of remaining activity (relative to DMSO) ([12]; listed as Cmp 987): 92.49%
- remaining activity at 10 µM [12, 28]: 96.9%
- % of remaining activity (relative to DMSO) ([13]; listed as Cmp 987): 91.79%
- remaining activity at 10 µM [13, 28]: 98.2%
- % of remaining activity (relative to DMSO) ([14]; listed as Cmp 987): 86.54%
- remaining activity at 10 µM [14, 28]: 78.7%
- % of remaining activity (relative to DMSO) ([15]; listed as Cmp 987): 37.80%
- remaining activity at 10 µM [15, 28]: 39.8%
- % of remaining activity (relative to DMSO) ([16]; listed as Cmp 987): 78.23%
- remaining activity at 10 µM [16, 28]: 77.7%
- % of remaining activity (relative to DMSO) ([17]; listed as Cmp 987): 40.00%
- remaining activity at 10 µM [17, 28]: 42.8%
- % of remaining activity (relative to DMSO) ([18]; listed as Cmp 987): 69.49%
- remaining activity at 10 µM [18, 28]: 68.5%
- % of remaining activity (relative to DMSO) ([19]; listed as Cmp 987): 18.19%
- remaining activity at 10 µM [19, 28]: 20.1%
- % of remaining activity (relative to DMSO) ([20]; listed as Cmp 987): 33.43%
- remaining activity at 10 µM [20, 28]: 36.9%
- % of remaining activity (relative to DMSO) ([21]; listed as Cmp 987): 72.17%
- remaining activity at 10 µM [21, 28]: 72.7%
- % of remaining activity (relative to DMSO) ([22]; listed as Cmp 987): 75.10%
- remaining activity at 10 µM [22, 28]: 88.8%
- % of remaining activity (relative to DMSO) ([23]; listed as Cmp 987): 50.05%
- remaining activity at 10 µM [23, 28]: 49.4%
- % of remaining activity (relative to DMSO) ([24]; listed as Cmp 987): 98.31%
- remaining activity at 10 µM [24, 28]: 95%
- % of remaining activity (relative to DMSO) ([25]; listed as Cmp 987): 17.83^$ %
- remaining activity at 10 µM [25, 28]: 17.6%
- % of remaining activity (relative to DMSO) ([26]; CK1d, 10 μM compound, duplicate, listed as Cmp 987): 5.40%
- remaining activity at 10 µM ([26]; CK1d, 10 μM compound, duplicate, read-out: % of remaining activity (relative to DMSO)): 5.71%
- IC50 [26]: 310 nM
- % of remaining activity (relative to DMSO) ([27]; listed as Cmp 987): 17.57%
- remaining activity at 10 µM [27, 28]: 20.3%

SMILES: O=C1Nc2ccc(I)cc2/C1=C/c1cc(Br)c(O)c(Br)c1 [GW5074]
- IC50 [26]: 113 nM
